US6756362B2, “Methods and compositions based on inhibition of cell invasion and fibrosis by anionic polymers” (priority 1991, dated 2004)

What was measured:
3T3 cells = assay: Colorimetric cell adhesion assay, 3T3; type: cell-based, mouse; conditions: 3T3 cells on PLL; 4 hr incubation; FIG. 7
Experimental: (§1) Cell lines. Murine 3T3 fibroblast (NIH), rat C6 glioma (Paganetti et al., 1988, J. Cell Biol. 107:2281) and MCG-28 young immortalized mouse astrocyte (a murine neonatal astrocyte line immortalized with SV-40) were grown in medium composed of Dulbecco's modified Eagle medium (DMEM), 10% fetal calf serum (Gibco Laboratories), and penicillin G/streptomycin (100 units/ml, 100 μg/ml respectively, Gibco Laboratories). For the stripe assay, confluent plates were disaggregated with 0.05% trypsin, 0.53 mM EDTA (Gibco Laboratories) and seeded at 200,000 cells/ml (3 ml/plate). For the cell adhesion assays, confluent cultures were disaggregated with 0.03% EDTA and plated in a 96-well microtiter plate at 20,000-100,000 cells per well. PC12 cells, a pheochromocytoma cell line (Green L. A. & Tischler A. S., 1976, Proc. Natl. Acad. Sci. U.S.A. 73:2424), were grown in medium containing Roswell Park Memorial Institute (RPMI) medium 1640 (Gibco Laboratories), 10% horse serum, 5% fetal calf serum (FCS), and penicillin G/streptomycin (100 units/ml, 100 μg/ml respectively, Gibco Laboratories). The cells were disaggregated with 0.03% EDTA and plated in a 96-well microtiter plate at 3,000 cells per well.
Microtiter plates were precoated with poly-L-lysine and blocked with 1% BSA in DMEM for 20 min prior to addition of cells. The cells were plated on the precoated 96-well plates and test compounds were added to the culture medium. Following 4-24 hr incubation at 36° C., 5% C02, in a humidified incubator, the tetrazolium salt MTT (3-(4,5-dimethylthazol-2-yl)-2,5-diphenyl tetrazolium bromide) was added. The cultures were incubated for 2 hr to allow mitochondrial succinate dehydrogenase, found in viable cells, to […] the MTT to its formazan blue reaction product. The media was aspirated and the wells were rinsed to remove all detached cells. The formazan blue reaction product in attached cells was solubilized with 0.08 N HCl in isopropanol, and the plates were read in a microtiter plate reader (Dynatech MR4000) at 570 nm with a 630 nm reference filter. The resulting optical density readings are directly related to the number of viable cells in the well (Mosmann, T., 1983, J. Immunol. Methods 65:55-63). The samples were run in 3-6 replicates per point and the SD was less than 5%.
The adhesion of fibroblasts to PLL-coated microtiter plates in the presence of test compounds in the culture medium was evaluated using an MTT assay as described in Section 8.1.5., supra, and the number of attached cells was expressed as percent of control. The effect of 4 hr incubation in the presence of heparin, pentosan polysulfate, dextran sulfate, and dextran on adhesion of rat meningeal fibroplasts (RMF) and 3T3 cells to PLL is shown in FIG. 7.

Sulfur content = type: physicochemical; conditions: by weight
[1] = system: epidural fibrosis at laminectomy site, Lewis inbred rats; assay: Epidural fibrosis after lumbar laminectomy in rats, gross evaluation; type: in vivo, rat; design: TOTAL SCORE / TOTAL SCORE 2 WEEKS: scale not given here; conditions: for inhibition of scar formation (in words): versus buffer control; for TOTAL SCORE 2 WEEKS: Table 4, 2 weeks post-implantation; for Bone Growth / Deep Scar / Gelfoam Appearance: score 0-3 per Table 1; for Bone Growth / Deep Scar / Gelfoam Appearance / Superficial Scar: agent-soaked GELFOAM in laminectomy site; for Superficial Scar: score 1-3 per Table 1
Experimental: Epidural fibrosis was investigated after lumbar laminectomy in rats. In this model, a laminectomy was performed at the lumbar 3 and 5 vertebrae and then the test agent was applied to the laminectomy site. Subsequently, the laminectomy sites were examined for fibrosis by gross dissection or by histological analysis.
Laminectomies (described below) were performed at lumbar vertebrae L3 and L5 to provide auto-controls within each animal. Segments of GELFOAM® (Upjohn) soaked with experimental or control solutions were inserted into the laminectomy site. The soared GELFOAM® fragments were prepared and coded 24 hours beforehand. The GELFOAM® segments were soaked in solutions of dextran sulfate in calcium/magnesium-free phosphate buffered saline (CMF-PBS), dextran in CMF-PBS, or CMF-PBS alone. In some laminectomy sites, the GELFOAM® fragments were omitted, in order to serve as sham operations. Subsequently, the evaluation by gross dissection was done without knowledge of which solutions had been placed in which laminectomy site. Thus, the experiments were double-blind.
Lewis inbred rats were anesthetized with 4% chloral hydrate (34 mg/100 g body weight). The dorsal skin was incised and the paraspinal muscles were separated from the spinous processes of lumbar vertebrae L2 through L6. The spinous processes of L3 and L5 were removed with a rongeurs; then the vertebral lamina was removed with a micro-rongeurs creating a rectangular laminectomy defect 4×2 mm in size. After bleeding was stopped, a GELFOAM® segment was placed into the laminectomy site according to a randomized protocol. The overlying paraspinal muscles were closed over the site by suturing the superficial fascia together with resorbable 6-0 PDS II (Ethicon). The skin incision was closed with wound clips.
The animals were kept for two weeks prior to gross evaluation. At that time, the rats were anesthetized with 4% chloral hydrate and the wound was reopened by incising, the skin and separating the paraspinal muscles. The quality and quantity of scar tissue above the laminectomy site, the appearance of the GELFOAM® and the extent of new bone growth was evaluated by visual and tactile observation during sharp dissection. After the gross evaluation was complete, the rats were euthanized by anesthesia overdose.
All gross evaluations were made prior to breaking the treatment code, but the observations have been tabulated and presented below according to treatment group.

PC12 cells = assay: PC12 neurite outgrowth assay; type: cell-based; conditions: NGF-primed PC12 cells; scored 2 days later
Experimental: as §1
PC12 cells were primed with 20 ng/ml NGF for 8 days, collected with 0.03% EDTA in PBS and plated in precoated 96-well microtiter plates at 3,000 cells/well. The microtiter plates were precoated with poly-L-lysine and blocked with adhesion medium (1% BSA in RPMI) for 20 min prior to addition of cells. The cells were grown in adhesion medium supplemented with 20 ng/ml NGF. The cells were allowed to attach for 2 hr prior to the addition of the test compounds (Akeson and Warren, 1986, Exp. Cell Res. 162:347-362).
PC-12 cells primed with NGF were plated in 96-well plates. Test solutions were added to the wells and the cells were scored 2 days later as (+) if neurites of at least two cell bodies diameter in length were present on the majority of the cells, and (−) if no or only short processes were present. […] The compounds tested included GAGs (heparin, dermatan sulfate, chondroitin sulfate A, keratan sulfate and hyaluronic acid), sulfated carbohydrate polymers (dextran sulfate and pentosan polysulfate), and another polyanionic polymer (e.g., alginic acid).

[2] = Table 2, sum of four criteria, lower = greater inhibition of scar formation, two weeks

Row | Substance | number of attached cells compared to untreated controls (3T3 cells) | Sulfur Content (Sulfur content) | inhibition of scar formation (in words) ([1]; 20 mg/ml) | TOTAL SCORE [1, 2] | TOTAL SCORE ([1]; Table 3 dose response, 0.2 mg/ml) | TOTAL SCORE ([1]; Table 3 dose response, 2 mg/ml) | TOTAL SCORE ([1]; Table 3 dose response, 20 mg/ml) | TOTAL SCORE 2 WEEKS ([1]; 20 mg/ml) | TOTAL SCORE ([1]; Table 5, agent 20 mg/ml) | hemorrhage and hematoma formation at the laminectomy site ([1]; rats, applied at laminectomy site) | Bone Growth ([1]; two weeks) | Deep Scar ([1]; two weeks) | Gelfoam Appearance ([1]; two weeks) | Superficial Scar ([1]; two weeks) | IC100, minimum concentration causing 100% inhibition of neurite outgrowth (PC12 cells) | hemorrhage and hematoma formation at the laminectomy site ([1]; rat, in vivo)
1 | dextran sulfate | decreased | 15.3% | potent inhibition | 1.7 ± 0.9 | 7.8 ± 1.9 | 3.0 ± 2.3 | 1.3 ± 0.5 | 1.2 ± 0.5 | 1.7 ± 0.9 | not seen | 0.1 ± 0.3 | 0.3 ± 0.5 | 0.1 ± 0.3 | 1.2 ± 0.4 | 5.2e-07 g/mL | 
2 | dextran [reference compound] | slight increase | 0% |  | 8.8 ± 2.4 |  |  |  | 9.5 ± 2.4 | 8.8 ± 2.4 |  | 1.6 ± 0.9 | 2.3 ± 0.9 | 2.2 ± 0.8 | 2.7 ± 0.5 | >0.001 g/mL | 
3 | Heparin | decreased | 11.8% | marginal improvement |  |  |  |  |  | 7.3 ± 2.5 |  |  |  |  |  | 2.6e-07 g/mL | caused hemorrhage and hematoma formation
